Data published in the supplement of paper PMC10307832.

Tests used:
Assay in all cases: relative viability (nuclei count vs DMSO), 5 days (fraction); higher = more cells survive
NCI-H1299 = test system: NCI-H1299
Procedure, shortened: (§1)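 Five library-drug doses in √10 steps were combined with a fixed anchor-drug dose, or a single drug was given alone, by pin tool to lung cancer cell lines in 1536-well plates the day after seeding. Nuclei were stained and counted after 5 days. Relative viability is the nuclei count in treated wells over that in vehicle wells, taken as the median of duplicate plates.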

Calu-6 = test system: Calu-6
Procedure, shortened: as §1

EBC-1 = test system: EBC-1
Procedure, shortened: as §1

IA-LM = test system: IA-LM
Procedure, shortened: as §1

NCI-H2170 = test system: NCI-H2170
Procedure, shortened: as §1

NCI-H1703 = test system: NCI-H1703
Procedure, shortened: as §1

A549 = test system: A549
Procedure, shortened: as §1

NCI-H23 = test system: NCI-H23
Procedure, shortened: as §1

NCI-H1975 = test system: NCI-H1975
Procedure, shortened: as §1

HOP-62 = test system: HOP-62
Procedure, shortened: as §1

NCI-H1563 = test system: NCI-H1563
Procedure, shortened: as §1

Oc1nc(-c2ccc(C(F)(F)F)cc2)nc2c1CSCC2 [XAV939] + CC1(C)CCC(c2ccc(Cl)cc2)=C(CN2CCN(c3ccc(C(=O)NS(=O)(=O)c4ccc(N[C@H](CCN5CCOCC5)CSc5ccccc5)c(S(=O)(=O)C(F)(F)F)c4)cc3)CC2)C1 [Navitoclax] (partner 0.5 µM)
relative viability (NCI-H1299; first compound 0.08 µM): 1.07
relative viability (NCI-H1299; first compound 0.253 µM): 1.02
relative viability (NCI-H1299; first compound 0.8 µM): 1.1
relative viability (NCI-H1299; first compound 2.53 µM): 1.04
relative viability (Calu-6; first compound 0.08 µM): 0.909
relative viability (Calu-6; first compound 0.253 µM): 0.779
relative viability (Calu-6; first compound 0.8 µM): 0.867
relative viability (Calu-6; first compound 2.53 µM): 0.857
relative viability (EBC-1; first compound 0.08 µM): 0.489
relative viability (EBC-1; first compound 0.253 µM): 0.413
relative viability (EBC-1; first compound 0.8 µM): 0.404
relative viability (EBC-1; first compound 2.53 µM): 0.447
relative viability (IA-LM; first compound 0.08 µM): 0.89
relative viability (IA-LM; first compound 0.253 µM): 0.698
relative viability (IA-LM; first compound 0.8 µM): 0.781
relative viability (IA-LM; first compound 2.53 µM): 0.463
relative viability (NCI-H2170; first compound 0.08 µM): 0.427
relative viability (NCI-H2170; first compound 0.253 µM): 0.441
relative viability (NCI-H2170; first compound 0.8 µM): 0.501
relative viability (NCI-H2170; first compound 2.53 µM): 0.422
relative viability (NCI-H1703; first compound 0.08 µM): 1.33
relative viability (NCI-H1703; first compound 0.253 µM): 1.35
relative viability (NCI-H1703; first compound 0.8 µM): 0.89
relative viability (NCI-H1703; first compound 2.53 µM): 0.844
relative viability (A549; first compound 0.08 µM): 1.49
relative viability (A549; first compound 0.253 µM): 1.06
relative viability (A549; first compound 0.8 µM): 1.12
relative viability (A549; first compound 2.53 µM): 1.06
relative viability (NCI-H23; first compound 0.08 µM): 0.859
relative viability (NCI-H23; first compound 0.253 µM): 0.776
relative viability (NCI-H23; first compound 0.8 µM): 0.531
relative viability (NCI-H23; first compound 2.53 µM): 0.755
relative viability (NCI-H1975; first compound 0.08 µM): 1.08
relative viability (NCI-H1975; first compound 0.253 µM): 0.784
relative viability (NCI-H1975; first compound 0.8 µM): 1.06
relative viability (NCI-H1975; first compound 2.53 µM): 0.768
relative viability (HOP-62; first compound 0.08 µM): 1.08
relative viability (HOP-62; first compound 0.253 µM): 1.02
relative viability (HOP-62; first compound 0.8 µM): 0.995
relative viability (HOP-62; first compound 2.53 µM): 0.932

Oc1nc(-c2ccc(C(F)(F)F)cc2)nc2c1CSCC2 [XAV939] + CC(=O)Nc1cccc(-n2c(=O)n(C3CC3)c(=O)c3c(Nc4ccc(I)cc4F)n(C)c(=O)c(C)c32)c1 [Trametinib] (partner 0.02 µM)
relative viability (NCI-H2170; first compound 0.08 µM): 0.882
relative viability (NCI-H2170; first compound 0.253 µM): 0.833
relative viability (NCI-H2170; first compound 0.8 µM): 0.822
relative viability (NCI-H2170; first compound 2.53 µM): 0.72
relative viability (NCI-H23; first compound 0.08 µM): 0.383
relative viability (NCI-H23; first compound 0.8 µM): 0.403
relative viability (NCI-H23; first compound 2.53 µM): 0.349
relative viability (NCI-H1975; first compound 0.08 µM): 0.359
relative viability (NCI-H1975; first compound 0.253 µM): 0.296
relative viability (NCI-H1975; first compound 0.8 µM): 0.35
relative viability (NCI-H1975; first compound 2.53 µM): 0.275
relative viability (HOP-62; first compound 0.08 µM): 0.392
relative viability (HOP-62; first compound 0.253 µM): 0.329
relative viability (HOP-62; first compound 0.8 µM): 0.411
relative viability (HOP-62; first compound 2.53 µM): 0.312

Oc1nc(-c2ccc(C(F)(F)F)cc2)nc2c1CSCC2 [XAV939] + CC(=O)c1c(C)c2cnc(Nc3ccc(N4CCNCC4)cn3)nc2n(C2CCCC2)c1=O [Palbociclib] (partner 0.5 µM)
relative viability (NCI-H2170; first compound 0.08 µM): 0.41
relative viability (NCI-H2170; first compound 0.253 µM): 0.263
relative viability (NCI-H2170; first compound 0.8 µM): 0.436
relative viability (NCI-H2170; first compound 2.53 µM): 0.322
relative viability (NCI-H23; first compound 0.08 µM): 0.529
relative viability (NCI-H23; first compound 0.8 µM): 0.465
relative viability (NCI-H23; first compound 2.53 µM): 0.386
relative viability (NCI-H1975; first compound 0.08 µM): 0.54
relative viability (NCI-H1975; first compound 0.253 µM): 0.483
relative viability (NCI-H1975; first compound 0.8 µM): 0.618
relative viability (NCI-H1975; first compound 2.53 µM): 0.508
relative viability (HOP-62; first compound 0.08 µM): 0.467
relative viability (HOP-62; first compound 0.253 µM): 0.4
relative viability (HOP-62; first compound 0.8 µM): 0.378
relative viability (HOP-62; first compound 2.53 µM): 0.313

Oc1nc(-c2ccc(C(F)(F)F)cc2)nc2c1CSCC2 [XAV939] + Nc1nc2[nH]cc(CCc3ccc(C(=O)N[C@@H](CCC(=O)O)C(=O)O)cc3)c2c(=O)[nH]1 [Pemetrexed] (partner 0.2 µM)
relative viability (NCI-H2170; first compound 0.08 µM): 0.255
relative viability (NCI-H2170; first compound 0.253 µM): 0.246
relative viability (NCI-H2170; first compound 0.8 µM): 0.265
relative viability (NCI-H2170; first compound 2.53 µM): 0.258
relative viability (NCI-H23; first compound 0.08 µM): 0.727
relative viability (NCI-H23; first compound 0.8 µM): 0.543
relative viability (NCI-H23; first compound 2.53 µM): 0.52
relative viability (NCI-H1975; first compound 0.08 µM): 0.27
relative viability (NCI-H1975; first compound 0.253 µM): 0.273
relative viability (NCI-H1975; first compound 0.8 µM): 0.286
relative viability (NCI-H1975; first compound 2.53 µM): 0.246
relative viability (HOP-62; first compound 0.08 µM): 0.347
relative viability (HOP-62; first compound 0.253 µM): 0.287
relative viability (HOP-62; first compound 0.8 µM): 0.292
relative viability (HOP-62; first compound 2.53 µM): 0.215
relative viability (NCI-H1563; first compound 0.08 µM): 0.823
relative viability (NCI-H1563; first compound 0.253 µM): 0.685
relative viability (NCI-H1563; first compound 0.8 µM): 0.659
relative viability (NCI-H1563; first compound 2.53 µM): 0.47

C=C1C(=O)O[C@@H](CCCCCCCC)[C@@H]1C(=O)O [C-75] + Nc1nc2[nH]cc(CCc3ccc(C(=O)N[C@@H](CCC(=O)O)C(=O)O)cc3)c2c(=O)[nH]1 [Pemetrexed] (partner 0.2 µM)
relative viability (NCI-H2170; first compound 0.08 µM): 0.244
relative viability (NCI-H2170; first compound 0.253 µM): 0.271
relative viability (NCI-H2170; first compound 0.8 µM): 0.286
relative viability (NCI-H2170; first compound 2.53 µM): 0.266
relative viability (NCI-H2170; first compound 8 µM): 0.282
relative viability (NCI-H23; first compound 0.08 µM): 0.716
relative viability (NCI-H23; first compound 0.253 µM): 1.03
relative viability (NCI-H23; first compound 0.8 µM): 0.546
relative viability (NCI-H23; first compound 2.53 µM): 0.406
relative viability (NCI-H23; first compound 8 µM): 0.443
relative viability (NCI-H1975; first compound 0.08 µM): 0.281
relative viability (NCI-H1975; first compound 0.253 µM): 0.287
relative viability (NCI-H1975; first compound 0.8 µM): 0.262
relative viability (NCI-H1975; first compound 2.53 µM): 0.264
relative viability (NCI-H1975; first compound 8 µM): 0.292
relative viability (HOP-62; first compound 0.08 µM): 0.365
relative viability (HOP-62; first compound 0.253 µM): 0.306
relative viability (HOP-62; first compound 0.8 µM): 0.291
relative viability (HOP-62; first compound 2.53 µM): 0.268
relative viability (HOP-62; first compound 8 µM): 0.311
relative viability (NCI-H1563; first compound 0.08 µM): 0.8
relative viability (NCI-H1563; first compound 0.253 µM): 0.915
relative viability (NCI-H1563; first compound 0.8 µM): 0.753
relative viability (NCI-H1563; first compound 2.53 µM): 0.666
relative viability (NCI-H1563; first compound 8 µM): 0.924
